Hemolysis data for five molecules are collected here from patent publication US7338809B2, “Method for assaying whole blood” (Mitsubishi Kagaku Iatron, Inc., priority 2001, dated 2008).

“Also recorded” adds a separate entry of the source.

Series [1] relates to whole blood. Put plainly: Example 3: visual inspection of reaction system with whole blood treatment solutions (hemolysis, adhesion and aggregation of magnetic particles).
Description: Examination was conducted on the assumption that a detergent was added to the reaction system by adding the detergent to a whole blood treatment solution beforehand. The whole blood treatment solutions were prepared by dissolving various detergents in 0.1 M Tris buffer (pH 8.0) containing 1% BSA and 0.15 M NaCl, and it was examined which detergent was suitable for the measurement method of the present invention.
Blood was collected by using an EDTA blood collection tube. Then, HBsAg was added at 1 U/ml to each of the whole blood stored at 4° C. for 3 days and plasma obtained from the whole blood by centrifugation, and a recovery test for HBsAg was performed using the luminescence intensity obtained in the measurement using plasma, which was taken as 100%.
The assay was performed in the same manner as in Example 2. Whole blood and each of the various whole blood treatment solutions were mixed at a ratio of 9:1, plasma was mixed with purified water at a ratio of 9:1, and HBsAg was immediately measured. Further, whole blood was mixed with the aforementioned buffer (0.1 M Tris buffer (pH 8.0) containing 1% BSA and 0.15 M NaCl) without adding a detergent instead of a whole blood treatment solution, and HBsAg was measured in the same manner. Presence or absence of hemolysis in the reaction system, non-specific adhesion of magnetic particles on the reaction vessel (made of polypropylene) and non-specific aggregation of magnetic particles during reaction were confirmed by visual inspection.
Series [2] concerns whole blood. Put plainly: Example 4: visual inspection of reaction system, types and concentrations of detergents (hemolysis, adhesion, aggregation). As to conditions: heparin whole blood stored overnight at 4° C.
Description: Blood was collected by using a blood collection tube treated with heparin as an anticoagulant. […] Each detergent was added at a concentration of 0.01, 0.1, 0.5, 1 and 10% as a final concentration after the mixing with whole blood. Presence or absence of hemolysis in the reaction system, non-specific adhesion of magnetic particles on the reaction vessel (made of polypropylene) and non-specific aggregation of magnetic particles during reaction were confirmed by visual inspection for each detergent in each reaction system, and recovery ratio with respect to the added amount was determined.
The subject of series [3] is whole blood. Put plainly: Example 5: visual inspection of reaction system using fresh whole blood (hemolysis, adhesion, aggregation).
Description: In emergent tests, in particular, it is desirable to perform an assay immediately after blood collection, and erythrocytes in whole blood may be gradually hemolyzed during storage, possibly affecting the measurement. Therefore, examination was performed by using fresh blood immediately after blood collection.
[4] abbreviates: detergent 1% upon mixing of whole blood, EDTA whole blood stored at 4° C. for 3 days, visual inspection.

As to Polyoxyethylene stearyl ether [Brij 78], the Hemolysis result in series [1] (setting [4]) is given as “Present”.

On to “Polyoxyethylene octyl phenyl ether [Triton X-100]”, for which the Hemolysis entry in series [1] (setting [4]) is “Present”; in series [2] (detergent 0.01% upon mixing of whole blood), “Absent”; in series [2] (detergent 0.1% upon mixing of whole blood) it was “Absent”; in series [2] (detergent 0.5% upon mixing of whole blood), “hemolysis was observed; also recorded: Present”; in series [2] (detergent 1% upon mixing of whole blood), “Present”; in series [2] (detergent 10% upon mixing of whole blood) it was “Present”.

As to `O=S(=O)([O-])CCC[n+]1ccccc1`, the Hemolysis result in series [1] and in series [3] was “Absent” in each case.

As for `C[C@H](CCC(=O)NCCC[N+](C)(C)CCCS(=O)(=O)[O-])[C@H]1CC[C@H]2[C@@H]3[C@H](O)C[C@@H]4C[C@H](O)CC[C@]4(C)[C@H]3C[C@H](O)[C@]12C` [CHAPS, 3-{(3-Cholamidopropyl)dimethylammonio}-1-propanesulfonate], the Hemolysis result in series [1] (setting [4]) is recorded as “Present”.

For the molecule Saponin, the Hemolysis entry in series [1] is reported as “Present”.
